Experiment [1] has as its target T1, Human KRAS G12D 6His-tagged (Homo sapiens, UniProt P01116, G12D).
T1 construct: purchased PerkinElmer
Kind of experiment: KRAS-G12D/GTP binding assay (HTRF). The procedure:
In this method, the inhibitory effects of the compounds on the binding of KRAS-G12D to GTP were assayed by a homogeneous time-resolved fluorescence (HTRF) technique using a KRAS-G12D/GTP binding assay kit (PerkinElmer).
The experimental procedures were as follows (refer to the kit instructions for detailed test methods): the compounds of the present disclosure were each firstly dissolved in DMSO at a concentration of 20 mM, and then diluted in an equal gradient with a buffer in the kit, so that the final concentrations of the test compounds in the reaction system were in a range of 0.02-5000 nM, and the final concentration of DMSO was 0.5%. 5 μL of each compound was incubated with 5 μL of 1× Human KRAS G12D 6His-tagged (PerkinElmer), 5 μL of 1×6His Eu Cryptate Antibody (PerkinElmer), and 5 μL of 1×GTP Red reagent (PerkinElmer) in a 384-well plate (Greiner) at 25° C. for 1 h. After the incubation was completed, the fluorescence intensity of each well was measured at the excitation wavelength of 337 nm and the emission wavelengths of 620 nm and 665 nm with an EnVision microplate reader (PerkinElmer) in the HTRF mode, and Ratio values were calculated using the formula: Ratio=(665 nm/620 nm)×[…]. The inhibition rates of the compounds at each concentration were calculated by comparing the fluorescence intensity ratio with that of the control group. Then non-linear curve fittings for logarithmic concentration-inhibition rate were performed using the GraphPad Prism 8 analysis software, and the IC50 values of the compounds were obtained (Table 2).
Background: TR-FRET usually uses a lanthanide donor and a delayed reading to cut background.

In experiment [2] the target is T2, KRAS-G12D (Homo sapiens, UniProt P01116, G12D).
T2 construct: endogenous in cells; host or cells: A-427 (ATCC), AGS, AsPc-1, Panc 04.03
T2 sequence (P01116 1-188 isoform P01116-2 G12D): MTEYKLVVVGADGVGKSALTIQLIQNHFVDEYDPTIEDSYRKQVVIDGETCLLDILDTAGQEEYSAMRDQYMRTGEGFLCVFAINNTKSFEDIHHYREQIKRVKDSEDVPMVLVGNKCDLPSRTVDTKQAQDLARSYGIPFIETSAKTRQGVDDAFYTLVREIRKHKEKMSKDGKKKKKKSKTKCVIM
As to the kind of experiment: KRAS-G12D degradation assay (Western Blot), A-427 cells. It counts as cell-based. The conditions noted are these: A427 cells, 24 h, class symbols; for Dmax: A-427. The method, boiled down: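 Each KRAS G12D mutant line (A-427, AGS, AsPc-1, Panc 04.03) was seeded at 5×10^5 cells/well and treated 24 h at 37 °C with 0.03–3000 nM compound (final DMSO 0.25%). KRAS in lysates was measured by Western blot, normalized to β-actin and compared with controls, giving DC50 and Dmax from curve fits.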
(In general: A western blot detects proteins with antibodies after separation by electrophoresis.)

Experiment [3] concerns KRAS G12D mutant human lung cancer cell A427. As to the kind of experiment: 3D cell proliferation inhibition assay, A427. The experiment is classed as cell-based. The conditions noted are these: A-427, 168 h, A427, 7 days, CTG, class symbols. An excerpt: (§1) The inhibitory effects of the compounds on 3D cell proliferation were investigated on KRAS G12D mutant human lung cancer cell A427, KRAS G12D mutant human gastric cancer cell AGS, KRAS G12D mutant human metastatic pancreatic cancer cell AsPc-1, KRAS G12D mutant human pancreatic cancer cell Panc 04.03, KRAS G12D mutant human pancreatic cancer cell HPAC, KRAS G12V mutant human lung squamous cell carcinoma cell SW900, and KRAS WT human gastric cancer cell MKN1. The specific procedures were as follows:
(§2) 10 μL of each compound solution diluted in a gradient was added to corresponding wells of a 96-well low-adsorption microplate (PerkinElmer), so that the final concentrations of the test compounds in the reaction system were in a range of 10000-0.026 nM. The final concentration of DMSO was 0.2%. Then 90 µL of cells were correspondingly seeded into each well to achieve a cell density of 5×10^2 cells/well (the cell density of SW900 was 5×10^1 cells/well, and the cell density of MKN1 was 1×10^3 cells/well). In addition to test wells for the test compounds, both a DMSO control well and a medium control well were set, with the DMSO control well containing DMSO and cells and the medium well containing only a medium. After the sample loading, the 96-well low-adsorption microplate was incubated in an incubator at 37° C. with 5% carbon dioxide for 7 days. After 7 days, the microplate was taken out, and 100 μL of CTG reagent (Promega) was added to each well. The plate was incubated at room temperature for 60 min and read on a microplate reader EnVision by the chemiluminescence program. The inhibition rates of the compounds at each concentration were calculated using the formula for the percentage inhibition of cell proliferation: inhibition rate %=(mean value of DMSO control group−single concentration reading value of compound)/(mean value of DMSO control group−mean value of medium control group)×100. Then non-linear curve fittings for logarithmic concentration-inhibition rate were performed by GraphPad Prism 8, and the IC50 values of the compounds were obtained (Table 5).

In experiment [4] the test system is KRAS G12D mutant human gastric cancer cell AGS. As to the kind of experiment: 3D cell proliferation inhibition assay, AGS. The experiment is classed as cell-based. Particulars: 168 h, 7 days, CTG, class symbols. An outline of the steps: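 Cells seeded at 5×10^2 per well in low-adsorption plates with compounds at 10000–0.026 nM final (0.2% DMSO) and grown 7 days at 37 °C, 5% CO2. Viability by CellTiter-Glo luminescence after 60 min at room temperature; inhibition normalized to DMSO and medium-only controls, IC50 from nonlinear log-concentration fit.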

The subject of experiment [5] is KRAS G12D mutant human metastatic pancreatic cancer cell AsPc-1. Kind of experiment: 3D cell proliferation inhibition assay, AsPc-1. It counts as cell-based. The conditions noted are these: ASPC1, 168 h, AsPc-1, 7 days, CTG, numeric values.
Description: as §1, §2

Experiment [6] relates to KRAS G12D mutant human pancreatic cancer cell HPAC. As to the kind of experiment: 3D cell proliferation inhibition assay, HPAC. It counts as cell-based. Particulars: 168 h, 7 days, CTG.
Description: as §1, §2

T1 sequence (P01116 1-188 isoform P01116-2 G12D): as above

Turning to `C#Cc1c(F)ccc2cc(O)cc(-c3ncc4c(N5CC6CCC(C5)N6)nc(OCC5(CN6CC7CC6CN7CC6CCC7(CC6)CCN(C(=O)c6ccc(Cl)c(N8CCC(=O)NC8=O)c6)CC7)CC5)nc4c3F)c12` (stereo not drawn) [Example 59, 1-(5-(9-((5-((1-(((4-(3,8-diazabicyclo[3.2.1]octan-3-yl)-7-(8-ethynyl-7-fluoro-3-hydroxynaphthalen-1-yl)-8-fluoropyrido[4,3-d]pyrimidin-2-yl)oxy)methyl)cyclopropyl)methyl)-2,5-diazabicyclo[2.2.1]heptan-2-yl)methyl)-3-azaspiro[5.5]undecane-3-carbonyl)-2-chlorophenyl)dihydropyrimidine-2,4(1H,3H)-dione], the IC50 – broadly, the midpoint of a concentration-inhibition curve – in experiment [1] (class symbols) was at most 50 nM; in experiment [3], 100 to 500 nM; in experiment [4] it was at most 50 nM. Moreover, the DC50 (in general, the midpoint of the concentration-degradation curve) in experiment [2] lay within 1000 to 10000 nM. For the same compound, in experiment [2], the Dmax (in general, the greatest extent of degradation seen) was under 30%.

In the case of `Cc1ccc(C(=O)N2CCC3(CCC(CN4CCN(CC5(COc6nc(N7CC8CCC(C7)N8)c7cnc(-c8cccc9cccc(Cl)c89)c(F)c7n6)CC5)CC4)CC3)CC2)cc1N1CCC(=O)NC1=O` [Example 45, 1-(5-(9-((4-((1-(((4-(3,8-diazabicyclo[3.2.1]octan-3-yl)-7-(8-chloronaphthalen-1-yl)-8-fluoropyrido[4,3-d]pyrimidin-2-yl)oxy)methyl)cyclopropyl)methyl)piperazin-1-yl)methyl)-3-azaspiro[5.5]undecane-3-carbonyl)-2-methylphenyl)dihydropyrimidine-2,4(1H,3H)-dione], the results for the 50% inhibitory concentration (IC50) in experiment [1] (class symbols), in experiment [3] and in experiment [4] were at most 50 nM, 50 to 100 nM and 50 to 100 nM, respectively. Besides, the DC50 in experiment [2] is 1000 to 10000 nM. In addition, in experiment [2], the Dmax was under 30%.

For the compound `C#Cc1c(F)ccc2cc(O)cc(-c3ncc4c(N5CC6CCC(C5)N6)nc(OCCN5CCN(CCC6CCC7(CC6)CCN(C(=O)c6ccc(Cl)c(N8CCC(=O)NC8=O)c6)CC7)CC5)nc4c3F)c12` [Example 61, 1-(5-(9-(2-(4-(2-((4-(3,8-diazabicyclo[3.2.1]octan-3-yl)-7-(8-ethynyl-7-fluoro-3-hydroxynaphthalen-1-yl)-8-fluoropyrido[4,3-d]pyrimidin-2-yl)oxy)ethyl)piperazin-1-yl)ethyl)-3-azaspiro[5.5]undecane-3-carbonyl)-2-chlorophenyl)dihydropyrimidine-2,4(1H,3H)-dione], the figures for the half-inhibitory concentration (IC50) in experiment [1] (numeric values), in experiment [3] and in experiment [4] were 21.1 nM, 100 to 500 nM and at most 50 nM, respectively.

In the case of `C#Cc1c(F)ccc2cc(O)cc(-c3ncc4c(N5CC6CCC(C5)N6)nc(OCC5(CN6CCC(CN7CCC8(CC7)CCN(C(=O)c7ccc(OC)c(N9CCC(=O)NC9=O)c7)CC8)CC6)CC5)nc4c3F)c12` [Example 38, 1-(5-(9-((1-((1-(((4-(3,8-diazabicyclo[3.2.1]octan-3-yl)-7-(8-ethynyl-7-fluoro-3-hydroxynaphthalen-1-yl)-8-fluoropyrido[4,3-d]pyrimidin-2-yl)oxy)methyl)cyclopropyl)methyl)piperidin-4-yl)methyl)-3,9-diazaspiro[5.5]undecane-3-carbonyl)-2-methoxyphenyl)dihydropyrimidine-2,4(1H,3H)-dione], the IC50 in experiment [1] (class symbols), in experiment [3] and in experiment [4] was at most 50 nM each time. Also, the DC50 in experiment [2] is at most 50 nM. In addition, the maximal degradation (Dmax) in experiment [2] lay within 80 to 100%.

On to `C#Cc1c(F)ccc2cc(O)cc(-c3ncc4c(N5CC6CCC(C5)N6)nc(OCC56CC(CN7CCN(CCC8CCC9(CC8)CCN(C(=O)c8ccc(Cl)c(N%10CCC(=O)NC%10=O)c8)CC9)CC7)(C5)C6)nc4c3F)c12` [Example 56, 1-(5-(9-(2-(4-((3-(((4-(3,8-diazabicyclo[3.2.1]octan-3-yl)-7-(8-ethynyl-7-fluoro-3-hydroxynaphthalen-1-yl)-8-fluoropyrido[4,3-d]pyrimidin-2-yl)oxy)methyl)bicyclo[1.1.1]pentan-1-yl)methyl)piperazin-1-yl)ethyl)-3-azaspiro[5.5]undecane-3-carbonyl)-2-chlorophenyl)dihydropyrimidine-2,4(1H,3H)-dione], for which the IC50 was 50 to 100 nM in experiment [1] (class symbols), 50 to 100 nM in experiment [3] and at most 50 nM in experiment [4]. For the same compound, the DC50 in experiment [2] is at most 50 nM. Moreover, in experiment [2], the Dmax is 50 to 80%.

As to `C#Cc1c(F)ccc2cc(O)cc(-c3ncc4c(N5CC6CCC(C5)N6)nc(OCC(CN5CCN(CC6CCC7(CC6)CCN(C(=O)c6ccc(OC)c(N8CCC(=O)NC8=O)c6)CC7)CC5)OC)nc4c3F)c12` (stereo not drawn) [Example 105, 1-(5-(9-((4-(3-((4-(3,8-diazabicyclo[3.2.1]octan-3-yl)-7-(8-ethynyl-7-fluoro-3-hydroxynaphthalen-1-yl)-8-fluoropyrido[4,3-d]pyrimidin-2-yl)oxy)-2-methoxypropyl)piperazin-1-yl)methyl)-3-azaspiro[5.5]undecane-3-carbonyl)-2-methoxyphenyl)dihydropyrimidine-2,4(1H,3H)-dione], the IC50 was found to be 93.5 nM in experiment [5] and 12.7 nM in experiment [6].

For the compound `C#Cc1c(F)ccc2cc(O)cc(-c3ncc4c(N5CC6CCC(C5)N6)nc(OCC5(CN6CC(CN7CCC8(CC7)CCN(C(=O)c7ccc(OC)c(N9CCC(=O)NC9=O)c7)CC8)C6)CC5)nc4c3F)c12` [Example 40, 1-(5-(9-((1-((1-(((4-(3,8-diazabicyclo[3.2.1]octan-3-yl)-7-(8-ethynyl-7-fluoro-3-hydroxynaphthalen-1-yl)-8-fluoropyrido[4,3-d]pyrimidin-2-yl)oxy)methyl)cyclopropyl)methyl)azetidin-3-yl)methyl)-3,9-diazaspiro[5.5]undecane-3-carbonyl)-2-methoxyphenyl)dihydropyrimidine-2,4(1H,3H)-dione], the results for the concentration for half-maximal inhibition (IC50) in experiment [1] (class symbols), in experiment [3] and in experiment [4] were at most 50 nM, 1000 to 10000 nM and 100 to 500 nM, respectively. Moreover, the DC50 in experiment [2] lay within 1000 to 10000 nM. In experiment [2], the Dmax lay within 30 to 50%.

The values are drawn from patent US20260166159A1, “KRAS G12D DEGRADATION AGENT, AND PREPARATION METHOD AND USE THEREFOR” (LEADINGTAC PHARMACEUTICAL (SHAOXING) CO., LTD., priority 2022, published 2026).
